Test results: ChEMBL document CHEMBL1201862, “PubChem BioAssay data set” (2004)
The source made the active and inactive calls.

Columns and labels:
[1] = viability inhibitors of stage V gametocytes – luminescence, dose response (AID 1117278); type: functional, cell-based;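 further: gametocytes exposed to compound for 24 hours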
[2] = viability loss in human Jurkat cells – cell-based, luminescence, cytotoxicity control for P. falciparum gametocyte viability project, dose response (AID 1117277); type: functional;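 further: potency reflects loss of cellular ATP meaning fewer viable cells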
[3] = Luminescence Cell-Based Dose Response HTS to Identify Activators of Luciferase Translation or Activity in H4 […] Cells. [Related pubchem assays: 1829 (Project Summary), 1814 (Primary HTS)]; type: functional
H4 = test: Luminescence Cell-Based Dose Response HTS to Identify Activators of 5'UTR Stem-Loop Driven Prion Protein mRNA Translation in H4 Neuroglioblastoma Cells. [Related pubchem assays: 1829 (Project Summary), 1814 (Primary HTS)]; type: functional; settings: Homo sapiens
[4] = viability loss of HPDE-C7K cells – cell-based, fluorescence, HTS, primary screen (AID 431); type: functional; settings: Homo sapiens
[5] = Luminescence Cell-Based Dose Confirmation HTS to Identify Activators of 5'UTR Stem-Loop Driven Alpha-Synuclein mRNA Translation in H4 Neuroglioblastoma Cells. [Related pubchem assays: 1829 (Project Summary), 1814 (Primary HTS)]; type: functional
[6] = HPDE-C7 pancreatic duct cell viability loss – fluorescence, HTS (AID 430); type: functional, cell-based; settings: Homo sapiens
[7] = toxicity to human HepG2 hepatoma cells – cell-based, plate reader, dry powder samples, cytotoxicity control, dose response (AID 1159569); type: functional;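 further: inhibitor potency with signal falling toward the positive control level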
[8] = Dd2 malaria parasite growth inhibition potency – SYBR Green, dry powder samples, dose response (AID 1159566); type: functional, cell-based;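 further: potency for growth inhibition with lower SYBR green DNA signal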
[9] = growth inhibition of PfATP4-mutant resistant parasites – NITD609-resistant line, SYBR Green, dry powder, dose response (AID 1159571); type: functional, cell-based;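 further: parasites synchronized at ring stage by sorbitol before testing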
[10] = growth inhibition of yeast DHODH-expressing 3D7 parasites – SYBR Green, dry powder samples, dose response (AID 1159570); type: functional, cell-based;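 further: parasite growth measured after 72 hours of compound exposure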
[11] = P. falciparum Dd2 growth inhibitors, dose response, SYBR Green, cherry-picked samples (AID 1159567); type: functional, cell-based
[12] = toxicity to human hepatoma HepG2 cells – cell-based, cherry-picked samples, cytotoxicity control, dose response (AID 1159577); type: functional
Ion channel NompC = Ion channel NompC (Danio rerio, UniProt Q7T1G6); test: Fluorescence counterscreen assay for TRPML3 agonists: dose response cell-based high-throughput screening assay to identify agonists of the transient receptor potential channel N1 (TRPN1). [Related pubchem assays: 1526, 1424, 1448 ]; type: functional
Sequence of Ion channel NompC (Q7T1G6 whole entry): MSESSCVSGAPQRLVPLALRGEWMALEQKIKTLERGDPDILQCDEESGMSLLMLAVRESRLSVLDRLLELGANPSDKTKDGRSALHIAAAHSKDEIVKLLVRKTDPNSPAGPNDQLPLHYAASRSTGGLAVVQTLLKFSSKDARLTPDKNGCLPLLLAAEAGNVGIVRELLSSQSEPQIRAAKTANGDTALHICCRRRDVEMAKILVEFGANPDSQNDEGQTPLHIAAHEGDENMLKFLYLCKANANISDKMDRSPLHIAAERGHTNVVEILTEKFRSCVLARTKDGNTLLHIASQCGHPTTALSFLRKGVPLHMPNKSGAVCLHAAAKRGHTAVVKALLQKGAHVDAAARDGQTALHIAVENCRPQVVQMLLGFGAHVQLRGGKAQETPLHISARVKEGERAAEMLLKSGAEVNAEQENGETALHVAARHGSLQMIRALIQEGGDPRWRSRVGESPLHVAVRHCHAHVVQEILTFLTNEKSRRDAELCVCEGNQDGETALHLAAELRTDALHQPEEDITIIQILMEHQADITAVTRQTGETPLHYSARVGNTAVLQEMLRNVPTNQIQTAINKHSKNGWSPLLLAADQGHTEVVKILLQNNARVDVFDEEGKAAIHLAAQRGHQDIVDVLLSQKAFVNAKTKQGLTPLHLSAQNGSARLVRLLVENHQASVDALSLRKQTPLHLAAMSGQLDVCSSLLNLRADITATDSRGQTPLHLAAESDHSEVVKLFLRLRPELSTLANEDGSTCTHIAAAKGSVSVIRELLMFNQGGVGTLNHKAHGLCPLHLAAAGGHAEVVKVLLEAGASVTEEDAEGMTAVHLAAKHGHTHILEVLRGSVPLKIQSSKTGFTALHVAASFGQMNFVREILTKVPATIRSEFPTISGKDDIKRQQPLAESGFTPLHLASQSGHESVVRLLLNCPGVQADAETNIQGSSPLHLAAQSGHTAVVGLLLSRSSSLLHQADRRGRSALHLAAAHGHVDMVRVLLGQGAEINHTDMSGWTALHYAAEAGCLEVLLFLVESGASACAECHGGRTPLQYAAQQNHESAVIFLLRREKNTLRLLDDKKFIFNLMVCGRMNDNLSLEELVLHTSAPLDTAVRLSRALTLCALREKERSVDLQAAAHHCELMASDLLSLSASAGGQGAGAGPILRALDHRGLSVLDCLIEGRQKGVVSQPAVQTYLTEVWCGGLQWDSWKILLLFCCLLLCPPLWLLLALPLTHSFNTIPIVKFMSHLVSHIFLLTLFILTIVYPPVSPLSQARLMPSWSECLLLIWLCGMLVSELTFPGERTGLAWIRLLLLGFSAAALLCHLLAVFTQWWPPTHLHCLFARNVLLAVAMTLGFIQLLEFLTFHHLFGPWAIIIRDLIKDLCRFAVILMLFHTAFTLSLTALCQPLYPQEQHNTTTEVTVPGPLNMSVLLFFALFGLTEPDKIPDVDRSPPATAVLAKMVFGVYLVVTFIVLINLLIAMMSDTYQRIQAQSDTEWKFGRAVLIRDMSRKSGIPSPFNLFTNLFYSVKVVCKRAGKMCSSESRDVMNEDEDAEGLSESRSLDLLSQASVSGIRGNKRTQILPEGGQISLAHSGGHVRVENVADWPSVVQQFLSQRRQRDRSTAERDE

Mucolipin-3 = biological target: T1, Mucolipin-3 (Homo sapiens, UniProt Q8TDD5); test: Dose response cell-based high-throughput screening assay for agonists of the transient receptor potential channel ML3 (TRPML3). [Related pubchem assays: 1526, 1424, 1448 ]; type: functional
T1 sequence (Q8TDD5 whole entry): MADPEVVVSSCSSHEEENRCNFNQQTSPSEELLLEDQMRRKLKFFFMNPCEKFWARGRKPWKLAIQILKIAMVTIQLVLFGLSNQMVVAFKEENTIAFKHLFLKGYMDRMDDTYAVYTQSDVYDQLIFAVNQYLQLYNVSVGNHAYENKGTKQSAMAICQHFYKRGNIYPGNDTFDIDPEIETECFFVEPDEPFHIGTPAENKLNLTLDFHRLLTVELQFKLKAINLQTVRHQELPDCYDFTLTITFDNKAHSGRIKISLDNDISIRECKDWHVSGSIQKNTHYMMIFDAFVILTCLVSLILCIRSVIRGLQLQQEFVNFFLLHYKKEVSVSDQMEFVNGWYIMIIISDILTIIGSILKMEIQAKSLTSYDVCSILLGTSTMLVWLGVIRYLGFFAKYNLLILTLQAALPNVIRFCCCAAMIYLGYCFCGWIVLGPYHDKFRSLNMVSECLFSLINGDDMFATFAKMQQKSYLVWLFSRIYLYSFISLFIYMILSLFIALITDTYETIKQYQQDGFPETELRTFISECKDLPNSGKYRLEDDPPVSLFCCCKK

Leucine aminopeptidase = biological target: T2, Leucine aminopeptidase (Plasmodium falciparum 3D7, UniProt Q8IL11); test: P. falciparum M17LAP inhibitors, primary screen, biochemical, fluorogenic H-Leu-NHMec substrate, 1536-well (AID 1619); type: functional
T2 sequence (Q8IL11 whole entry): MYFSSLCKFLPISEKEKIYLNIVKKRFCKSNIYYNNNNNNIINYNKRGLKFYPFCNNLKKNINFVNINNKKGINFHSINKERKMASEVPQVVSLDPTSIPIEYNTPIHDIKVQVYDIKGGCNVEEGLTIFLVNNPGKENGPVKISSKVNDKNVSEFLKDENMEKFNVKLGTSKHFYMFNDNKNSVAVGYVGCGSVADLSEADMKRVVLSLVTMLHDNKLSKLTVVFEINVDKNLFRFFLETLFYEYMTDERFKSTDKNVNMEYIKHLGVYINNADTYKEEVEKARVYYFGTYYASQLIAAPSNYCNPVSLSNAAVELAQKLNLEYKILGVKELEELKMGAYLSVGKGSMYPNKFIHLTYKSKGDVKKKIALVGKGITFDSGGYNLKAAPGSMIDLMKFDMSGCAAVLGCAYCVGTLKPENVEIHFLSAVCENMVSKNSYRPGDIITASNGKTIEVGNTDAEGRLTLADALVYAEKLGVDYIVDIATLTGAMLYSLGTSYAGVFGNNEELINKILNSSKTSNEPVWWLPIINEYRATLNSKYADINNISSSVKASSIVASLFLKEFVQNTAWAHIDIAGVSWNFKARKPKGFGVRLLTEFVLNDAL

[13] = biological target: T3, Epstein-Barr nuclear antigen 1 (Epstein-Barr virus (strain B95-8) (HHV-4) (Human herpesvirus 4), UniProt P03211); test: inhibition of EBV nuclear antigen 1 DNA binding – biochemical, fluorescence polarization, 1536-well, dose response (AID 2381); parameters: species or system human gammaherpesvirus 4;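 further: fluorescence polarization of a Cy5 DNA probe bound by EBNA-1 protein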
T3 sequence (P03211 whole entry): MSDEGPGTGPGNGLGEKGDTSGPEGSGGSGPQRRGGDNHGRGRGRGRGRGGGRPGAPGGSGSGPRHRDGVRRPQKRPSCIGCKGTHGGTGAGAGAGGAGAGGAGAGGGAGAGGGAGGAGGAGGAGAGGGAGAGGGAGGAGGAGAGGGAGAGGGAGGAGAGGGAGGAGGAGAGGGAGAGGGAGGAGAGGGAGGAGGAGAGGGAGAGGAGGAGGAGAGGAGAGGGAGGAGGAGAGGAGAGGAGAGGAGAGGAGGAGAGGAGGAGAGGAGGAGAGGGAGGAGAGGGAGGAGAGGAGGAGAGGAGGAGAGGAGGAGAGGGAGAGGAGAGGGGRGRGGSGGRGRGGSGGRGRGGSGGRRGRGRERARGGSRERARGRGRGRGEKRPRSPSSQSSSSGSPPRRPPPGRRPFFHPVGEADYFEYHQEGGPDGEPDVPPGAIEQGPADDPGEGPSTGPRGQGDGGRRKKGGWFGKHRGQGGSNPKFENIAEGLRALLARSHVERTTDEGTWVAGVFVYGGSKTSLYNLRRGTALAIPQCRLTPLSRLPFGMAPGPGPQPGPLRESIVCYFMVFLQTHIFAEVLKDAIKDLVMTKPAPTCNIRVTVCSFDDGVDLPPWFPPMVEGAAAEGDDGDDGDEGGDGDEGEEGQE

[14] = biological target: T4, Zinc finger protein mex-5 (Caenorhabditis elegans, UniProt Q9XUB2); test: potency of MEX-5 RNA-binding blockers – biochemical, C. elegans, fluorescence polarization, dose response (AID 1960)
T4 sequence (Q9XUB2 whole entry): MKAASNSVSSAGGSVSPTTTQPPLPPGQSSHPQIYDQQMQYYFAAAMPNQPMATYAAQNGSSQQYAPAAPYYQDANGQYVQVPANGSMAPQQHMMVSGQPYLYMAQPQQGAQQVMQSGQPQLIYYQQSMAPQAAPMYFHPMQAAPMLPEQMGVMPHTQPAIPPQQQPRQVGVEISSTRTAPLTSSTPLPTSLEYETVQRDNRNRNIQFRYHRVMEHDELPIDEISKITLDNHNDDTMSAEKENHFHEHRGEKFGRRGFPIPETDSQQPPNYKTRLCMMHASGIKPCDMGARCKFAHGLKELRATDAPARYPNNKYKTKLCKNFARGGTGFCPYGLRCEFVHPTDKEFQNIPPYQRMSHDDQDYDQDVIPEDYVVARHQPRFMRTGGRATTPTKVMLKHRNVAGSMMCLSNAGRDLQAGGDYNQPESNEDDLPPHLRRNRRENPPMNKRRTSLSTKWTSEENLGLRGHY

[15] = biological target: T5, Lytic switch protein BZLF1 (Epstein-Barr virus (strain B95-8) (HHV-4) (Human herpesvirus 4), UniProt P03206); test: inhibition of BZLF1 ZTA DNA binding – biochemical, fluorescence polarization, Epstein-Barr virus, 1536-well, counter-screen for EBNA-1 inhibitor project, dose response (AID 2377); parameters: species or system human gammaherpesvirus 4;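 further: fluorescence polarization of Cy5-labelled ZRE DNA probe bound by purified Zta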
T5 sequence (P03206 whole entry): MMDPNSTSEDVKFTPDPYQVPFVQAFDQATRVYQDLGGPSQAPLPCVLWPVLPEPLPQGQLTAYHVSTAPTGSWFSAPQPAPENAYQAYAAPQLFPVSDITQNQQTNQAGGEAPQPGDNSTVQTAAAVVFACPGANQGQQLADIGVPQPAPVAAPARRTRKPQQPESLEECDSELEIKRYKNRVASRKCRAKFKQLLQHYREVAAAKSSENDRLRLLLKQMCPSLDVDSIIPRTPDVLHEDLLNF

[16] = biological target: T6, RNA-binding protein pos-1 (Caenorhabditis elegans, UniProt G5EF15); test: disruptors of C. elegans POS-1 RNA interaction – biochemical, fluorescence polarization, dose response (AID 1964);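 further: purified POS-1 fused to maltose binding protein made in E. coli; potency of compounds blocking POS-1 binding to fluorescent RNA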
T6 sequence (G5EF15 whole entry): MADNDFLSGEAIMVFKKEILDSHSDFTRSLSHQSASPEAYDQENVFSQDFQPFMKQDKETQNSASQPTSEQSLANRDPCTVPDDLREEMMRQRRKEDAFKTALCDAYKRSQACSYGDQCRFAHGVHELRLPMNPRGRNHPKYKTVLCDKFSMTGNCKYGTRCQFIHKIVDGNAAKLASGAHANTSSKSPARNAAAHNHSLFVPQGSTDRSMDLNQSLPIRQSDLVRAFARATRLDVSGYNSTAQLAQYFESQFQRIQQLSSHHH

[17] = biological target: DNA dC->dU-editing enzyme APOBEC-3G (Homo sapiens, UniProt Q9HC16); test: Dose Response confirmation of small molecule APOBEC3G DNA Deaminase Inhibitors via a fluorescence-based single-stranded DNA deaminase assay. [Related pubchem assays (depositor defined):AID493012, AID493028]; type: functional
Sequence of DNA dC->dU-editing enzyme APOBEC-3G (Q9HC16 whole entry): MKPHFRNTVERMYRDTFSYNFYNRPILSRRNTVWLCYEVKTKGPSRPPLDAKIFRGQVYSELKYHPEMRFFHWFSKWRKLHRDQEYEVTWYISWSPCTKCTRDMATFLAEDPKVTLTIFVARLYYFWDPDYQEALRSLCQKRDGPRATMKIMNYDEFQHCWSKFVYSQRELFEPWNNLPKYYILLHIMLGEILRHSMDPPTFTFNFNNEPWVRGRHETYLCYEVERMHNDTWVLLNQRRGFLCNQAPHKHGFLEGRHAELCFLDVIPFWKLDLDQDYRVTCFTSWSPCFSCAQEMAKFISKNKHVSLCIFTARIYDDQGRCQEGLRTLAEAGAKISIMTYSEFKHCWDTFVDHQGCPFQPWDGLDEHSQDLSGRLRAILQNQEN

[18] = biological target: T7, Mannose-6-phosphate isomerase (Homo sapiens, UniProt P34949); test: MPI enzyme activity inhibition – biochemical, fluorescence intensity, coupled assay, primary screen (AID 1209)
T7 sequence (P34949 whole entry): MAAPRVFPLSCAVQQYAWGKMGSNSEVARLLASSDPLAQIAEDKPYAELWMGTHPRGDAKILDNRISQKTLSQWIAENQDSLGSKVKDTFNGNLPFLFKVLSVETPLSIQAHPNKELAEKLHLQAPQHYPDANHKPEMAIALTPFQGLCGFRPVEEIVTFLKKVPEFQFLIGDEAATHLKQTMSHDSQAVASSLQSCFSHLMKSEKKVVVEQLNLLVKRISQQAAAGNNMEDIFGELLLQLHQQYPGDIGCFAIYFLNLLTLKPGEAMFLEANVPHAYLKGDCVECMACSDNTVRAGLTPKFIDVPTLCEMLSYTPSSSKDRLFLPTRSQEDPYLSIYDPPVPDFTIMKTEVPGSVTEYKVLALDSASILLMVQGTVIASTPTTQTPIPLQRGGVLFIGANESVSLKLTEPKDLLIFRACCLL

[19] = biological target: FAD-linked sulfhydryl oxidase ALR (Homo sapiens, UniProt P55789); test: ALR-catalysed DTT oxidation blockers – biochemical, H2O2 detection, luminescence, cherry-pick, dose response (AID 493248)
Sequence of FAD-linked sulfhydryl oxidase ALR (P55789 whole entry): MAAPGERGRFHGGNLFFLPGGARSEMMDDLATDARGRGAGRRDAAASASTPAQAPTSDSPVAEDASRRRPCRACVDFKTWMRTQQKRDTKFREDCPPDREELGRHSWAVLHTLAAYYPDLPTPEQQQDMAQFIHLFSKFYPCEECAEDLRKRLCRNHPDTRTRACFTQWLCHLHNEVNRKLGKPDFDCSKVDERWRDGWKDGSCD

**Q.** What does the source list for `COCC(=O)Nc1ccc(Br)cc1C`?
**A.** IC50 [1]: > 109 µM (inactive); IC50 [2]: > 83.3 µM (inactive)

**Q.** For `CC1(C)Cc2c(c(N3CCOCC3)nc3snc(N)c23)CO1`, which EC50 [3] is on record?
**A.** > 120 µM (not active)

**Q.** And the EC50 (H4)?
**A.** > 120 µM (not active)

**Q.** And the EC50 [4]?
**A.** 7.17 µM (active)

**Q.** What about the EC50 [5] of the same compound?
**A.** 40.9 µM (active)

**Q.** What about the EC50 [6] of the same compound?
**A.** 7.52 µM (active)

**Q.** For `COc1ccccc1CN1C[C@@H]2N[C@H](C1)[C@@H]2c1ccc(-c2cccnc2)cc1`, which AC50 [7] is on record?
**A.** 29.6 µM (active)

**Q.** And the AC50 [8]?
**A.** 1.35 µM (active)

**Q.** What about the AC50 [9] of the same compound?
**A.** 1.78 µM (active)

**Q.** And the AC50 [10]?
**A.** 3.2 µM (active)

**Q.** And the AC50 [11]?
**A.** 2.1 µM (active)

**Q.** And the AC50 [12]?
**A.** 28.5 µM (active)

**Q.** What does the source list for `CC(C)[C@H](NS(=O)(=O)c1ccc2c(c1)OCCO2)C(=O)OCC(=O)Nc1cccc(Cl)c1Cl`?
**A.** EC50 (Ion channel NompC): > 29.9 µM (not active); EC50 (Mucolipin-3): 3.69 µM (active)

**Q.** With `CCCN(CCC)S(=O)(=O)c1ccc(C(=O)N2CCCc3ccccc32)cc1` as the compound, how does the EC50 (Ion channel NompC) read?
**A.** > 29.9 µM (not active)

**Q.** And the EC50 (Mucolipin-3)?
**A.** 1.33 µM (active)

**Q.** Which IC50 (Leucine aminopeptidase) does the source give for `Nc1cc(N)nc(SCC(=O)Nc2ccc3c(c2)OCCCO3)n1` here?
**A.** 14.4 µM (active)

**Q.** Which IC50 [13] does the source give for `CN(C)c1ccc(/C=C(\C#N)C(=O)NCc2ccco2)cc1` here?
**A.** 15 µM (not active)

**Q.** What about the EC50 [14] of the same compound?
**A.** 23.7 µM (active)

**Q.** And the IC50 [15]?
**A.** 32 µM (not active)

**Q.** What about the EC50 [16] of the same compound?
**A.** > 300 µM (not active)

**Q.** Which IC50 [17] does the source give for `COc1ccc(Cc2nnc(S)n2N)cc1OC` here?
**A.** 17.8 µM (active)

**Q.** And the IC50 [18]?
**A.** 31.9 µM (active)

**Q.** With `Cc1cccc(Nc2ncnc3[nH]cnc23)c1` as the compound, how does the IC50 (Leucine aminopeptidase) read?
**A.** 71.4 µM (active)

**Q.** What about the AC50 [19] of the same compound?
**A.** 75.3 µM (active)
